Reference: patent US20100189648A1, “INHIBITORS FOR DISRUPTING THE INTERACTION OF UBIQUITINATION RELATED ENZYMES AND USES THEREOF” (priority 2006, published 2010)

Columns and labels:
Format in all cases: cell-based, human
Hela cells = assay: MTT survival assay, cervical cancer line (Hela cells); set-up: IC50 (95% confidence level), interval: unit not given beside the values
In short: (§1)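 Survival was measured by MTT reduction after tumour cells had been exposed to a range of compound concentrations for 68 hours at 37 C. Absorbance at 570 nm gave percent inhibition against untreated wells, and IC50 values were fitted by the Bliss method.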

MCF-7 = assay: MTT survival assay, breast cancer cell line (MCF-7); set-up: IC50 (95% confidence level), interval: unit not given beside the values
In short: as §1

HCT116 = assay: MTT survival assay, colon cancer cell line (HCT116); set-up: IC50 (95% confidence level), interval: unit not given beside the values
Experimental: The effect of the above identified compounds on anti-tumor activity in human carcinoma cells was determined by the MTT survival assay. The MTT assay is a commonly used method in evaluation of cell survival, based on the ability of viable cells to convert MTT (MTT, Sigma, Cat No. 044K5307), a soluble tetrazolium salt [3-(4,5-dimethylthuazole-2-yl)-2,5 diphenyl tetrazolium bromide], into an insoluble formazan precipitate, which is quantitated by spectrophotometry following solubilization in dimethyl sulfoxide (DMSO).
In brief, different carcinoma cells were treated with negative control, various test articles at different concentration, and positive control (DDP), in 96-well tissue culture dishes. Each test article at different concentration is repeated 3 times.
Different carcinoma cells were diluted with 10% FBS and RPM1640 or MEM media to a concentration of 3-5×10^4 per ml suspension. 100 microliter of cells were incubated in each well in 96-well tissue culture dishes at 37 C. The cells were incubated at 37 C on the first day. On the second day, media supernatant was removed and replaced with media and different concentration of test articles (100 microliter in each well). Three Negative control wells and three positive control (DDP) wells were also included. The 96-well plate were incubated at 37 C for another 68 hours. After 68 hours, supernatant of each well was removed. 100 microliter of 1 mg/ml MTT diluted in PBS was injected into each well. The cells were incubated at 37 C for another 4 hours. The cells were then solubilized in 150 microliter DMSO, mixed for 10 minutes and absorbance readings were taken using Microplate reader Bio-Rad Model 550 at 570 nm. IR (cell growth inhibition rate) % was calculated as (OD570 of negative control-OD570 with test article)/OD570 of negative control. IC50 (cell 50% inhibition concentration) at 95% confidence level was calculated with Bliss method.

A459 = assay: MTT survival assay, lung cancer cell line (A459); set-up: IC50 (95% confidence level), interval: unit not given beside the values; conditions: for IC50 (95% confidence level), interval: 95% confidence limits of IC50; for IC50 (95% confidence level): Bliss method, unit not printed (concentrations in μg/ml)
In short: as §1

SMMC-7721 = assay: MTT survival assay, liver cancer cell line (SMMC-7721)
In short: as §1

SKOV3 = assay: MTT survival assay, ovarian cancer cell line (SKOV3); conditions: for IC50 (95% confidence level): Bliss method, unit not printed (concentrations in μg/ml)
In short: as §1

U251 = assay: MTT survival assay, glioma cell line (brain tumor U251); conditions: for IC50 (95% confidence level): Bliss method, unit not printed (concentrations in μg/ml)
In short: as §1

[1] = Bliss method, unit not printed (concentrations in μg/ml)
[2] = A459 Experiment #2, 0.0625 μg/ml
[3] = SMMC-7721 Experiment #2, 0.25 μg/ml
[4] = SMMC-7721 Experiment #2, 1 μg/ml
[5] = SMMC-7721 Experiment #2, 4 μg/ml
[6] = SKOV3 (first table), 0.0625 μg/ml
[7] = SKOV3 (first table), 0.25 μg/ml
[8] = SKOV3 (second table), 0.0625 μg/ml
[9] = SKOV3 (second table), 0.25 μg/ml
[10] = U251 (first table), 0.0625 μg/ml
[11] = U251 (second table), 0.0625 μg/ml
[12] = U251 (second table), 0.25 μg/ml

`N.N.[Cl][Pt][Cl]` [DDP, cisplatin, reference compound] was tested, and the “IR (%)” value (Hela cells; 0.0625 μg/ml) was 35.3%, the “OD(A570 nm)” value (Hela cells; 0.0625 μg/ml) was 0.481 ± 0.081 and the “IR (%)” value (Hela cells; 0.25 μg/ml) was 72.2%. For the same molecule, the “OD(A570 nm)” value (Hela cells; 0.25 μg/ml) was 0.206 ± 0.014, the “IR (%)” value (Hela cells; 1 μg/ml) was 83.4% and the “OD(A570 nm)” value (Hela cells; 1 μg/ml) was 0.123 ± 0.007. The “IR (%)” value (Hela cells; 4 μg/ml) was 89.5%, the “OD(A570 nm)” value (Hela cells; 4 μg/ml) was 0.078 ± 0.001 and the “IC50 (95% confidence level), interval” value (Hela cells; 95% confidence limits of IC50) was 0.062-0.156. For the same molecule, the “IC50 (95% confidence level)” value (Hela cells; [1]) was 0.105, the “IR (%)” value (MCF-7; 0.0625 μg/ml) was 12.8% and the “OD(A570 nm)” value (MCF-7; 0.0625 μg/ml) was 0.787 ± 0.005. The “IR (%)” value (MCF-7; 0.25 μg/ml) was 2.6%, the “OD(A570 nm)” value (MCF-7; 0.25 μg/ml) was 0.879 ± 0.059 and the “IR (%)” value (MCF-7; 1 μg/ml) was 83.3%. The “OD(A570 nm)” value (MCF-7; 1 μg/ml) was 0.151 ± 0.011, the “IR (%)” value (MCF-7; 4 μg/ml) was 88.2% and the “OD(A570 nm)” value (MCF-7; 4 μg/ml) was 0.107 ± 0.007. The “IC50 (95% confidence level), interval” value (MCF-7; 95% confidence limits of IC50) was 0.483-0.737, the “IC50 (95% confidence level)” value (MCF-7; [1]) was 0.596 and the “IR (%)” value (HCT116; 0.25 μg/ml) was 51.0%. For the same molecule, the “OD(A570 nm)” value (HCT116; 0.25 μg/ml) was 0.266 ± 0.016, the “IR (%)” value (HCT116; 1 μg/ml) was 62.9% and the “OD(A570 nm)” value (HCT116; 1 μg/ml) was 0.201 ± 0.060. For the same molecule, the “IR (%)” value (HCT116; 4 μg/ml) was 75.5%, the “OD(A570 nm)” value (HCT116; 4 μg/ml) was 0.133 ± 0.016 and the “IC50 (95% confidence level), interval” value (HCT116; 95% confidence limits of IC50) was 0.211-0.257. For the same molecule, the “IC50 (95% confidence level)” value (HCT116; [1]) was 0.234, the “IR (%)” value (A459; A459, 0.0625 μg/ml) was 23.9% and the “OD(A570 nm)” value (A459; A459, 0.0625 μg/ml) was 0.485 ± 0.046. The “IR (%)” value (A459; A459, 0.25 μg/ml) was 18.8%, the “OD(A570 nm)” value (A459; A459, 0.25 μg/ml) was 0.517 ± 0.073 and the “IR (%)” value (A459; A459, 1 μg/ml) was 46.4%. For the same molecule, the “OD(A570 nm)” value (A459; A459, 1 μg/ml) was 0.341 ± 0.060, the “IR (%)” value (A459; A459, 4 μg/ml) was 71.0% and the “IC50 (95% confidence level), interval” value (A459; A459) was 1.113-1.213. For the same molecule, the “IC50 (95% confidence level)” value (A459; A459) was 1.162, the “IR (%)” value (A459; [2]) was 23.9% and the “OD(A570 nm)” value (A459; [2]) was 0.485 ± 0.046. The “IR (%)” value (A459; A459 Experiment #2, 0.25 μg/ml) was 18.8%, the “OD(A570 nm)” value (A459; A459 Experiment #2, 0.25 μg/ml) was 0.517 ± 0.073 and the “IR (%)” value (A459; A459 Experiment #2, 1 μg/ml) was 46.4%. For the same molecule, the “OD(A570 nm)” value (A459; A459 Experiment #2, 1 μg/ml) was 0.341 ± 0.060, the “IR (%)” value (A459; A459 Experiment #2, 4 μg/ml) was 71.0% and the “IC50 (95% confidence level), interval” value (A459; A459 Experiment #2) was 1.114-1.213. For the same molecule, the “IC50 (95% confidence level)” value (A459; A459 Experiment #2) was 1.162, the “IR (%)” value (SMMC-7721; SMMC-7721, 0.0625 μg/ml) was −29.4% and the “OD(A570 nm)” value (SMMC-7721; SMMC-7721, 0.0625 μg/ml) was 0.570 ± 0.166. For the same molecule, the “IR (%)” value (SMMC-7721; SMMC-7721, 0.25 μg/ml) was 46.2%, the “OD(A570 nm)” value (SMMC-7721; SMMC-7721, 0.25 μg/ml) was 0.237 ± 0.020 and the “IR (%)” value (SMMC-7721; SMMC-7721, 1 μg/ml) was 71.0%. For the same molecule, the “OD(A570 nm)” value (SMMC-7721; SMMC-7721, 1 μg/ml) was 0.128 ± 0.011, the “IR (%)” value (SMMC-7721; SMMC-7721, 4 μg/ml) was 61.6% and the “OD(A570 nm)” value (SMMC-7721; SMMC-7721, 4 μg/ml) was 0.169 ± 0.022. The “IR (%)” value (SMMC-7721; [3]) was 24.5%, the “OD(A570 nm)” value (SMMC-7721; [3]) was 0.348 ± 0.045 and the “IR (%)” value (SMMC-7721; [4]) was 43.1%. The “OD(A570 nm)” value (SMMC-7721; [4]) was 0.262 ± 0.020, the “IR (%)” value (SMMC-7721; [5]) was 47.0% and the “OD(A570 nm)” value (SMMC-7721; [5]) was 0.244 ± 0.155. For the same molecule, the “IC50 (95% confidence level), interval” value (SMMC-7721; SMMC-7721 Experiment #2, 95% confidence limits of IC50) was 3.757-4.640, the “IC50 (95% confidence level)” value (SMMC-7721; SMMC-7721 Experiment #2, Bliss method, unit not printed (concentrations in μg/ml)) was 4.155 and the “IR (%)” value (SKOV3; [6]) was 1.6%. For the same molecule, the “OD(A570 nm)” value (SKOV3; [6]) was 0.689 ± 0.065, the “IR (%)” value (SKOV3; [7]) was 8.3% and the “OD(A570 nm)” value (SKOV3; [7]) was 0.643 ± 0.141. The “IR (%)” value (SKOV3; SKOV3 (first table), 1 μg/ml) was 62.0%, the “OD(A570 nm)” value (SKOV3; SKOV3 (first table), 1 μg/ml) was 0.267 ± 0.044 and the “IR (%)” value (SKOV3; SKOV3 (first table), 4 μg/ml) was 88.2%. The “OD(A570 nm)” value (SKOV3; SKOV3 (first table), 4 μg/ml) was 0.083 ± 0.002, the “IC50 (95% confidence level)” value (SKOV3; SKOV3 (first table)) was 0.89 and the “IR (%)” value (SKOV3; [8]) was 1.6%. The “OD(A570 nm)” value (SKOV3; [8]) was 0.689 ± 0.065, the “IR (%)” value (SKOV3; [9]) was 8.3% and the “OD(A570 nm)” value (SKOV3; [9]) was 0.643 ± 0.141. For the same molecule, the “IR (%)” value (SKOV3; SKOV3 (second table), 1 μg/ml) was 62.0%, the “OD(A570 nm)” value (SKOV3; SKOV3 (second table), 1 μg/ml) was 0.267 ± 0.044 and the “IR (%)” value (SKOV3; SKOV3 (second table), 4 μg/ml) was 88.2%. For the same molecule, the “OD(A570 nm)” value (SKOV3; SKOV3 (second table), 4 μg/ml) was 0.083 ± 0.002, the “IC50 (95% confidence level)” value (SKOV3; SKOV3 (second table)) was 0.89 and the “IR (%)” value (U251; [10]) was 16.8%. The “OD(A570 nm)” value (U251; [10]) was 0.729 ± 0.090, the “IR (%)” value (U251; U251 (first table), 0.25 μg/ml) was 21.5% and the “OD(A570 nm)” value (U251; U251 (first table), 0.25 μg/ml) was 0.688 ± 0.035. For the same molecule, the “IR (%)” value (U251; U251 (first table), 1 μg/ml) was 58.4%, the “OD(A570 nm)” value (U251; U251 (first table), 1 μg/ml) was 0.365 ± 0.058 and the “IR (%)” value (U251; U251 (first table), 4 μg/ml) was 80.2%. The “OD(A570 nm)” value (U251; U251 (first table), 4 μg/ml) was 0.174 ± 0.009, the “IC50 (95% confidence level)” value (U251; U251 (first table)) was 1.13 and the “IR (%)” value (U251; [11]) was 16.8%. For the same molecule, the “OD(A570 nm)” value (U251; [11]) was 0.729 ± 0.090, the “IR (%)” value (U251; [12]) was 21.5% and the “OD(A570 nm)” value (U251; [12]) was 0.688 ± 0.035. The “IR (%)” value (U251; U251 (second table), 1 μg/ml) was 58.4%, the “OD(A570 nm)” value (U251; U251 (second table), 1 μg/ml) was 0.365 ± 0.058 and the “IR (%)” value (U251; U251 (second table), 4 μg/ml) was 80.2%. For the same molecule, the “OD(A570 nm)” value (U251; U251 (second table), 4 μg/ml) was 0.174 ± 0.009 and the “IC50 (95% confidence level)” value (U251; U251 (second table)) was 1.13.
